{"source": "patent US20080292619A1", "about": "“Pharmaceutical Composition Containing Meltrin Antagonist” (MOCHIDA PHARMACEUTICAL CO., LTD., priority 2004, published 2008)", "data": [{"tested_on": "human meltrin α RNA", "assay": "Suppression of human meltrin α expression by antisense compound in RD cell (real time PCR)", "type": "cell-based", "conditions": "50 nM; RD cell; corrected by GAPDH", "summary_of_the_method": "(§1)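 RD cells transfected with heat-denatured antisense oligodeoxynucleotide plus Lipofectin in Opti-MEM for 4 h at 37° C, then cultured 18 h. Meltrin α RNA quantified by TaqMan RT-PCR against plasmid standard curve, GAPDH-corrected; suppression vs untreated cells, rated +/++/+++ for ≥30/50/70%.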", "values": [{"substance": "H136 + 15: gggacattcaggccgttgag (GGGACATTCAGGCCGTTGAG; antisense; DNA, all phosphorothioate, methylation of C not given here)", "suppression rate of expression, 50 nM": "+ (“+” when the suppression rate was at least 30%)"}, {"substance": "H136 + 16: agggacattcaggccgttga (AGGGACATTCAGGCCGTTGA; antisense; DNA, all phosphorothioate, methylation of C not given here)", "suppression rate of expression, 50 nM": "+ (“+” when the suppression rate was at least 30%)"}, {"substance": "H136 + 17: gagggacattcaggccgttg (GAGGGACATTCAGGCCGTTG; antisense; DNA, all phosphorothioate, methylation of C not given here)", "suppression rate of expression, 50 nM": "+ (“+” when the suppression rate was at least 30%)"}, {"substance": "H136 + 18: tgagggacattcaggccgtt (TGAGGGACATTCAGGCCGTT; antisense; DNA, all phosphorothioate, methylation of C not given here)", "suppression rate of expression, 50 nM": "++ (“++” when the suppression rate was at least 50%)"}, {"substance": "H136: ttgaggggtctgctgatgtc (TTGAGGGGTCTGCTGATGTC; antisense; DNA, all phosphorothioate, methylation of C not given here)", "suppression rate of expression, 50 nM": "+ (“+” when the suppression rate was at least 30%)"}, {"substance": "H137 + 1: ggctgagggacattcaggcc (GGCTGAGGGACATTCAGGCC; antisense; DNA, all phosphorothioate, methylation of C not given here)", "suppression rate of expression, 50 nM": "++ (“++” when the suppression rate was at least 50%)"}, {"substance": "H137 + 2: gggctgagggacattcaggc (GGGCTGAGGGACATTCAGGC; antisense; DNA, all phosphorothioate, methylation of C not given here)", "suppression rate of expression, 50 nM": "+++ (“+++” when the suppression rate was at least 70%)"}, {"substance": "H137 + 3: ggggctgagggacattcagg (GGGGCTGAGGGACATTCAGG; antisense; DNA, all phosphorothioate, methylation of C not given here)", "suppression rate of expression, 50 nM": "++ (“++” when the suppression rate was at least 50%)"}, {"substance": "H137 + 4: tggggctgagggacattcag (TGGGGCTGAGGGACATTCAG; antisense; DNA, all phosphorothioate, methylation of C not given here)", "suppression rate of expression, 50 nM": "++ (“++” when the suppression rate was at least 50%)"}, {"substance": "H137: gctgagggacattcaggccg (GCTGAGGGACATTCAGGCCG; antisense; DNA, all phosphorothioate, methylation of C not given here)", "suppression rate of expression, 50 nM": "++ (“++” when the suppression rate was at least 50%)"}, {"substance": "H138: cactcgctgagttgactggg (CACTCGCTGAGTTGACTGGG; antisense; DNA, all phosphorothioate, methylation of C not given here)", "suppression rate of expression, 50 nM": "++ (“++” when the suppression rate was at least 50%)"}, {"substance": "H139 + 10: tgcacgtggggcccggtgga (TGCACGTGGGGCCCGGTGGA; antisense; DNA, all phosphorothioate, methylation of C not given here)", "suppression rate of expression, 50 nM": "+ (“+” when the suppression rate was at least 30%)"}, {"substance": "H139 + 11: gtgcacgtggggcccggtgg (GTGCACGTGGGGCCCGGTGG; antisense; DNA, all phosphorothioate, methylation of C not given here)", "suppression rate of expression, 50 nM": "+ (“+” when the suppression rate was at least 30%)"}, {"substance": "H139 + 12: ggtgcacgtggggcccggtg (GGTGCACGTGGGGCCCGGTG; antisense; DNA, all phosphorothioate, methylation of C not given here)", "suppression rate of expression, 50 nM": "+ (“+” when the suppression rate was at least 30%)"}, {"substance": "H139 + 13: aggtgcacgtggggcccggt (AGGTGCACGTGGGGCCCGGT; antisense; DNA, all phosphorothioate, methylation of C not given here)", "suppression rate of expression, 50 nM": "+ (“+” when the suppression rate was at least 30%)"}, {"substance": "H139 + 15: ctaggtgcacgtggggcccg (CTAGGTGCACGTGGGGCCCG; antisense; DNA, all phosphorothioate, methylation of C not given here)", "suppression rate of expression, 50 nM": "+++ (“+++” when the suppression rate was at least 70%)"}, {"substance": "H139 + 16: gctaggtgcacgtggggccc (GCTAGGTGCACGTGGGGCCC; antisense; DNA, all phosphorothioate, methylation of C not given here)", "suppression rate of expression, 50 nM": "++ (“++” when the suppression rate was at least 50%)"}, {"substance": "H139 + 17: cgctaggtgcacgtggggcc (CGCTAGGTGCACGTGGGGCC; antisense; DNA, all phosphorothioate, methylation of C not given here)", "suppression rate of expression, 50 nM": "+ (“+” when the suppression rate was at least 30%)"}, {"substance": "H139 + 18: acgctaggtgcacgtggggc (ACGCTAGGTGCACGTGGGGC; antisense; DNA, all phosphorothioate, methylation of C not given here)", "suppression rate of expression, 50 nM": "++ (“++” when the suppression rate was at least 50%)"}, {"substance": "H139 + 19: gacgctaggtgcacgtgggg (GACGCTAGGTGCACGTGGGG; antisense; DNA, all phosphorothioate, methylation of C not given here)", "suppression rate of expression, 50 nM": "+ (“+” when the suppression rate was at least 30%)"}, {"substance": "H139: gcccggtggaggggaggaag (GCCCGGTGGAGGGGAGGAAG; antisense; DNA, all phosphorothioate, methylation of C not given here)", "suppression rate of expression, 50 nM": "+ (“+” when the suppression rate was at least 30%)"}, {"substance": "H140: ggacgctaggtgcacgtggg (GGACGCTAGGTGCACGTGGG; antisense; DNA, all phosphorothioate, methylation of C not given here)", "suppression rate of expression, 50 nM": "+ (“+” when the suppression rate was at least 30%)"}, {"substance": "H141 + 15: cctaagtgcaggcttggctg (CCTAAGTGCAGGCTTGGCTG; antisense; DNA, all phosphorothioate, methylation of C not given here)", "suppression rate of expression, 50 nM": "+ (“+” when the suppression rate was at least 30%)"}, {"substance": "H142: gcctgcctaagtgcaggctt (GCCTGCCTAAGTGCAGGCTT; antisense; DNA, all phosphorothioate, methylation of C not given here)", "suppression rate of expression, 50 nM": "++ (“++” when the suppression rate was at least 50%)"}, {"substance": "H143 + 5: ggggtttggcttacaggtcc (GGGGTTTGGCTTACAGGTCC; antisense; DNA, all phosphorothioate, methylation of C not given here)", "suppression rate of expression, 50 nM": "++ (“++” when the suppression rate was at least 50%)"}, {"substance": "H143 + 9: gaggggggtttggcttacag (GAGGGGGGTTTGGCTTACAG; antisense; DNA, all phosphorothioate, methylation of C not given here)", "suppression rate of expression, 50 nM": "+ (“+” when the suppression rate was at least 30%)"}, {"substance": "H143 + 10: tgaggggggtttggcttaca (TGAGGGGGGTTTGGCTTACA; antisense; DNA, all phosphorothioate, methylation of C not given here)", "suppression rate of expression, 50 nM": "+ (“+” when the suppression rate was at least 30%)"}, {"substance": "H143 + 12: tctgaggggggtttggctta (TCTGAGGGGGGTTTGGCTTA; antisense; DNA, all phosphorothioate, methylation of C not given here)", "suppression rate of expression, 50 nM": "+ (“+” when the suppression rate was at least 30%)"}, {"substance": "H143 + 14: cttctgaggggggtttggct (CTTCTGAGGGGGGTTTGGCT; antisense; DNA, all phosphorothioate, methylation of C not given here)", "suppression rate of expression, 50 nM": "+ (“+” when the suppression rate was at least 30%)"}, {"substance": "H143: ttggcttacaggtcccctgg (TTGGCTTACAGGTCCCCTGG; antisense; DNA, all phosphorothioate, methylation of C not given here)", "suppression rate of expression, 50 nM": "+ (“+” when the suppression rate was at least 30%)"}, {"substance": "H144 + 5: gcaggcagaggcttctgagg (GCAGGCAGAGGCTTCTGAGG; antisense; DNA, all phosphorothioate, methylation of C not given here)", "suppression rate of expression, 50 nM": "++ (“++” when the suppression rate was at least 50%)"}, {"substance": "H144 + 6: tgcaggcagaggcttctgag (TGCAGGCAGAGGCTTCTGAG; antisense; DNA, all phosphorothioate, methylation of C not given here)", "suppression rate of expression, 50 nM": "++ (“++” when the suppression rate was at least 50%)"}, {"substance": "H144 + 7: ctgcaggcagaggcttctga (CTGCAGGCAGAGGCTTCTGA; antisense; DNA, all phosphorothioate, methylation of C not given here)", "suppression rate of expression, 50 nM": "++ (“++” when the suppression rate was at least 50%)"}, {"substance": "H144 + 8: tctgcaggcagaggcttctg (TCTGCAGGCAGAGGCTTCTG; antisense; DNA, all phosphorothioate, methylation of C not given here)", "suppression rate of expression, 50 nM": "+ (“+” when the suppression rate was at least 30%)"}]}, {"tested_on": "human meltrin α RNA", "assay": "Suppression of human meltrin α expression by antisense compound in RD cell (real time PCR)", "type": "cell-based", "conditions": "200 nM; RD cell; corrected by GAPDH", "summary_of_the_method": "as §1", "values": [{"substance": "H136: ttgaggggtctgctgatgtc (TTGAGGGGTCTGCTGATGTC; antisense; DNA, all phosphorothioate, methylation of C not given here)", "suppression rate of expression, 200 nM": "+++ (“+++” when the suppression rate was at least 70%)"}, {"substance": "H137: gctgagggacattcaggccg (GCTGAGGGACATTCAGGCCG; antisense; DNA, all phosphorothioate, methylation of C not given here)", "suppression rate of expression, 200 nM": "++ (“++” when the suppression rate was at least 50%)"}, {"substance": "H138: cactcgctgagttgactggg (CACTCGCTGAGTTGACTGGG; antisense; DNA, all phosphorothioate, methylation of C not given here)", "suppression rate of expression, 200 nM": "+++ (“+++” when the suppression rate was at least 70%)"}, {"substance": "H139: gcccggtggaggggaggaag (GCCCGGTGGAGGGGAGGAAG; antisense; DNA, all phosphorothioate, methylation of C not given here)", "suppression rate of expression, 200 nM": "+++ (“+++” when the suppression rate was at least 70%)"}, {"substance": "H140: ggacgctaggtgcacgtggg (GGACGCTAGGTGCACGTGGG; antisense; DNA, all phosphorothioate, methylation of C not given here)", "suppression rate of expression, 200 nM": "+++ (“+++” when the suppression rate was at least 70%)"}, {"substance": "H141: ggctggcaggggtctggcag (GGCTGGCAGGGGTCTGGCAG; antisense; DNA, all phosphorothioate, methylation of C not given here)", "suppression rate of expression, 200 nM": "++ (“++” when the suppression rate was at least 50%)"}, {"substance": "H142: gcctgcctaagtgcaggctt (GCCTGCCTAAGTGCAGGCTT; antisense; DNA, all phosphorothioate, methylation of C not given here)", "suppression rate of expression, 200 nM": "++ (“++” when the suppression rate was at least 50%)"}, {"substance": "H143: ttggcttacaggtcccctgg (TTGGCTTACAGGTCCCCTGG; antisense; DNA, all phosphorothioate, methylation of C not given here)", "suppression rate of expression, 200 nM": "+++ (“+++” when the suppression rate was at least 70%)"}]}]}
